Measurements: patent US20250002475A1 (EPICS THERAPEUTICS, priority 2023, published 2025)
pIC50: −log10 of the molar value.

Key:
[1] = target: T1, recombinant METTL3/METTL14 complex (Homo sapiens, UniProt Q86U44); test: METTL3/14 Scintillation Proximity Assay (SPA), RNA methyltransferase activity; type: biochemical; conditions: 5.31 nM METTL3/14 complex, 250 nM RNA substrate, 1 μM 3H-SAM, 90 min; for compounds marked * best of the two separated forms
T1 construct: purchased Active Motif 311970; host or cells: Sf9 cells
T1 sequence (Q86U44 whole entry): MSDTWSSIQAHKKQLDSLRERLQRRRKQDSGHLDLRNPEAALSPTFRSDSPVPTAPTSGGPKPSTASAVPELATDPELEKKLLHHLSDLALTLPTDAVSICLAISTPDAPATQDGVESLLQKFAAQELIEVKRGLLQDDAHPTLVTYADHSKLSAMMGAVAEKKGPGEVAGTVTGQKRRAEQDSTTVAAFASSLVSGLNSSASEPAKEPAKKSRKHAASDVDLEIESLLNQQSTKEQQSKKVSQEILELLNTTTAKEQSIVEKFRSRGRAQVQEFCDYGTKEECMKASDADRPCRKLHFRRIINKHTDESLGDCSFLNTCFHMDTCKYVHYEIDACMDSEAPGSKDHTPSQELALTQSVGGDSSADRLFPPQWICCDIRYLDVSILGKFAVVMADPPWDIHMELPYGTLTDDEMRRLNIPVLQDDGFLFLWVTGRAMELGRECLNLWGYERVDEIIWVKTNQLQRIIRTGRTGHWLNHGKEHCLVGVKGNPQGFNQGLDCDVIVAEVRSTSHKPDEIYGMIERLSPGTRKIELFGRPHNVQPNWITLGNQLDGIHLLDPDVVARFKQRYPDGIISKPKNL
T1 sequence (Q9HCE5 whole entry partner): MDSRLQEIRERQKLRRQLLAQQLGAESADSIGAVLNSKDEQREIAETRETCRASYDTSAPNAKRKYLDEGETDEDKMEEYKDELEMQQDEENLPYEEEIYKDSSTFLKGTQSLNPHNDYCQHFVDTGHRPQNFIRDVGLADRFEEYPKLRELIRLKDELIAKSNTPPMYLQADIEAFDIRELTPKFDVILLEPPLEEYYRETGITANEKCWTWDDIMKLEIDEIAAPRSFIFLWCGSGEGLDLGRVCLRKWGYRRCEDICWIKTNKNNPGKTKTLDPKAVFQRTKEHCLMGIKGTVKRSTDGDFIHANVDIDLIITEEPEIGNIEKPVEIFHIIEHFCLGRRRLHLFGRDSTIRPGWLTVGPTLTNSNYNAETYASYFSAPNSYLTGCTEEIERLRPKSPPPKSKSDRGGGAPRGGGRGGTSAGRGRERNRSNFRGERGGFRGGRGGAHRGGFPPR

Caov-3 cells = test: Caov-3 cellular viability assay (ATP-Lite, 72 h); type: cell-based; conditions: Homo sapiens, ATP-Lite luminescence, % viability relative to DMSO
Protocol: Caov-3 cell line was purchased from ATCC (ATCC® HTB-75™). Cells were isolated from the ovary of a ovarian cancer patient.
Caov-3 cells are cultured in DMEM (ATCC 30-2002) containing 10% heat-inactivated and 0.22 μm filtered FBS (Gibco 10270-106). The cells are seeded at 2.5E+4cell/cm^2 within the recommended subcultivation ratio of 1:3 to 1:6, as stated on the certificate of analysis issues by the provider of the cells.
Cellular viability assay: Caov-3 cells were plated (50 μL) in 96-well cell culture microplates (PS, F-Bottom black, Cellstar, Greiner 655086) at final concentration of 10000 cells/well. The compounds of the invention were dissolved in DMSO, and a titration curve was generated at 1000× final concentration. Compounds were then diluted 500× in tissue culture medium (RPMI-1640, 10% FBS). Then 50 μl of test compound were added to Caov-3 cells in a final DMSO concentration of 0.1%, final volume 100 μl. A gas permeable sealing membrane was applied to the plate to prevent evaporation (Breathe-Easy sealing membrane, Sigma Z380059-1PK) and cells were incubated for 72 h at 37° C., 5% CO2, 80% RH. After 72 h of treatment, the plates were taken out of the incubator and left for a few minutes at room temperature. 100 μl of the reconstituted reagent ATP-Lite One Step (Perkin Elmer, 6016739) were added to each well. The plates were shaken for 2 min at 700 rpm and placed in the dark for 10 minutes at room temperature before measurement of luminescence intensity with Envision instrument. The raw data were expressed in RLU. Results were expressed in % of viability relative to DMSO control and an IC50 was calculated based on the concentration-response profile of individual compounds.

Kasumi-1 cells = test: Kasumi-1 cellular viability assay (ATP-Lite, 72 h); type: cell-based; conditions: Homo sapiens, ATP-Lite luminescence, % viability relative to DMSO
Summary of the method: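 Viability was read by ATP-Lite One Step luminescence after 72 h compound treatment at 37 °C/5% CO2, normalised to DMSO control, with IC50 fitted from concentration-response. Cells were Kasumi-1 (AML FAB M2) at 15000 per well in RPMI-1640/10% FBS, 0.1% DMSO final.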

SMILES	pIC50 [1]	pIC50 (Caov-3 cells)	pIC50 (Kasumi-1 cells)
CC(n1cc(-c2cncc(N3CCCC3)c2)nn1)n1ccc(N2CCC[C@@H](NCC3CC3)C2)cc1=O (single isomer, unassigned) [Compound 176]	≥ 7.30	≥ 6.30	≥ 6.30
CC(n1cc(-c2cncc(N3CCCCC3)c2)nn1)n1ccc(N2CCC[C@@H](NCC3CCC3)C2)cc1=O (single isomer, unassigned) [Compound 178]	≥ 7.30	≥ 6.30	≥ 6.30
CC(n1cc(-c2cncc(N3CCCC3)n2)nn1)n1ccc(N2CCC[C@@H](NCC3CC3)C2)cc1=O (single isomer, unassigned) [Compound 180]	≥ 7.30	≥ 6.30	≥ 6.30
CC(n1cc(-c2cncc(N(C)C)n2)nn1)n1ccc(N2CCC[C@@H](NCC3CC3)C2)cc1=O (single isomer, unassigned) [Compound 186]	≥ 7.30	≥ 6.30	≥ 6.30
CCOc1cncc(-c2cn(C(C)c3ccc(N4CCC[C@@H](NCC5CCC5)C4)nn3)nn2)c1 (single isomer, unassigned) [Compound 187]	≥ 7.30	≥ 6.30	5.30 to 6.30
CC(n1cc(-c2cncc(N3CC4(COC4)C3)c2)nn1)n1ccc(N2CCC[C@@H](NCC3CCC3)C2)cc1=O (single isomer, unassigned) [Compound 191]	≥ 7.30	≥ 6.30	5.30 to 6.30
CC(n1cc(-c2cncc(N3CC4(CCC4)C3)c2)nn1)n1ccc(N2CCC[C@@H](NCC3CCC3)C2)cc1=O (single isomer, unassigned) [Compound 193]	≥ 7.30	≥ 6.30	≥ 6.30
CC(n1cc(-c2cc(N(C)C)cnn2)nn1)n1ccc(N2CCC[C@@H](NCC3CCC3)C2)cc1=O (single isomer, unassigned) [Compound 198]	≥ 7.30	5.30 to 6.30	5.30 to 6.30
COC1CN(c2cncc(-c3cn(C(C)n4ccc(N5CCC[C@@H](NCC6CCC6)C5)cc4=O)nn3)c2)C1 (single isomer, unassigned) [Compound 199]	≥ 7.30	≥ 6.30	≥ 6.30
CC(n1cc(-c2cncc(N3CC4(C3)CC4(F)F)c2)nn1)n1ccc(N2CCC[C@@H](NCC3CC3)C2)cc1=O (single isomer, unassigned) [Compound 211]	≥ 7.30	≥ 6.30	≥ 6.30
CC(c1cnn(-c2cncc(N(C)C)n2)c1)n1ccc(N2CCC[C@@H](NCC3CC3)C2)cc1=O (single isomer, unassigned) [Compound 225]	≥ 7.30	≥ 6.30	≥ 6.30
CC(n1cnc(-c2cncc(N3CCCC3)n2)c1)n1ccc(N2CCC[C@@H](NCC3CC3)C2)cc1=O (single isomer, unassigned) [Compound 226]	≥ 7.30	≥ 6.30	≥ 6.30
CC(n1cc(-c2cncc(N3CC[C@H](F)C3)n2)nn1)n1ccc(N2CCC[C@@H](NCC3CC3)C2)cc1=O (single isomer, unassigned) [Compound 241]	≥ 7.30	≥ 6.30	≥ 6.30
CC(n1cnc(-c2cc(N(C)C)cnn2)c1)n1ccc(N2CCC[C@@H](NCC3CC3)C2)cc1=O (single isomer, unassigned) [Compound 243]	≥ 7.30	5.30 to 6.30	5.30 to 6.30
CC(n1cc(-c2cncc(N3CC[C@@H](F)C3)n2)nn1)n1ccc(N2CCC[C@@H](NCC3CC3)C2)cc1=O (single isomer, unassigned) [Compound 245]	≥ 7.30	≥ 6.30	≥ 6.30

Second part, led by results:

pIC50 [1]	SMILES	pIC50 (Caov-3 cells)	pIC50 (Kasumi-1 cells)
≥ 7.30	CC1CN(c2cncc(-c3cn(C(C)n4ccc(N5CCC[C@@H](NCC6CCC6)C5)cc4=O)nn3)c2)C1 (single isomer, unassigned) [Compound 177]	≥ 6.30	≥ 6.30
≥ 7.30	CC(n1nnc(-c2cncc(N(C)C)c2)n1)n1ccc(N2CCC[C@@H](NCC3CCC3)C2)cc1=O (single isomer, unassigned) [Compound 179]	≥ 6.30	≥ 6.30
≥ 7.30	COc1cncc(-c2ncc(C(C)c3ccc(N4CCC[C@@H](NCC5CCC5)C4)cn3)s2)c1 (single isomer, unassigned) [Compound 181]	5.30 to 6.30	5.30 to 6.30
≥ 7.30	COc1cc(-c2cn(C(C)n3ccc(N4CCC[C@@H](NCC5CCC5)C4)cc3=O)cn2)c2cn[nH]c2c1 (single isomer, unassigned) [Compound 188]	5.30 to 6.30	5.30 to 6.30
≥ 7.30	CC(n1cc(-c2cncc(OCC(F)(F)F)c2)nn1)n1ccc(N2CCC[C@@H](NCC3CCC3)C2)cc1=O (single isomer, unassigned) [Compound 200]	5.30 to 6.30	5.30 to 6.30
≥ 7.30	CC(n1cc(-c2cc(N3CCCC3)cnn2)nn1)n1ccc(N2CCC[C@@H](NCC3CC3)C2)cc1=O (single isomer, unassigned) [Compound 206]	≥ 6.30	5.30 to 6.30
≥ 7.30	CC(n1cc(-c2cncc(N3CC(C(F)F)C3)c2)nn1)n1ccc(N2CCC[C@@H](NCC3CC3)C2)cc1=O (single isomer, unassigned) [Compound 209]	5.30 to 6.30	5.30 to 6.30
≥ 7.30	COc1cc(-c2nnn(C(C)n3ccc(N4CCC[C@@H](NCC5CCC5)C4)cc3=O)n2)c2cn[nH]c2c1 (single isomer, unassigned) [Compound 210]	≥ 6.30	5.30 to 6.30
≥ 7.30	CC(n1cc(-c2cncc(-n3ccnc3)c2)nn1)n1ccc(N2CCC[C@@H](NCC3CC3)C2)cc1=O (single isomer, unassigned) [Compound 218]	5.30 to 6.30	< 5.30
≥ 7.30	CC(c1cnn(-c2cc(N3CCCC3)cnn2)c1)n1ccc(N2CCC[C@@H](NCC3CC3)C2)cc1=O (single isomer, unassigned) [Compound 219]	≥ 6.30	5.30 to 6.30
≥ 7.30	CC(c1cnn(-c2cncc(N3CCCC3)n2)c1)n1ccc(N2CCC[C@@H](NCC3CC3)C2)cc1=O (single isomer, unassigned) [Compound 220]	≥ 6.30	≥ 6.30
≥ 7.30	CC(n1cc(-c2cncc(N3CCC(F)(F)C3)n2)nn1)n1ccc(N2CCC[C@@H](NCC3CC3)C2)cc1=O (single isomer, unassigned) [Compound 227]	≥ 6.30	≥ 6.30
≥ 7.30	CC(n1cnc(-c2cncc(N(C)C)n2)c1)n1ccc(N2CCC[C@@H](NCC3CC3)C2)cc1=O (single isomer, unassigned) [Compound 229]	≥ 6.30	≥ 6.30
≥ 7.30	CC(n1cc(-c2cncc(N3CCC(C)(C)C3)n2)nn1)n1ccc(N2CCC[C@@H](NCC3CC3)C2)cc1=O (single isomer, unassigned) [Compound 230]	≥ 6.30	≥ 6.30
≥ 7.30	COc1cncc(-c2cn(C(C)n3ccc(N4CCC[C@@H](NCC5CC5)C4)cc3=O)nn2)c1 (single isomer, unassigned) [Compound 232]	≥ 6.30	≥ 6.30
≥ 7.30	CC(n1cc(-c2cncc(N3CC4CC4C3)n2)nn1)n1ccc(N2CCC[C@@H](NCC3CC3)C2)cc1=O (single isomer, unassigned) [Compound 234]	≥ 6.30	≥ 6.30
≥ 7.30	CC(n1cc(-c2cncc(N3CC4(COC4)C3)n2)nn1)n1ccc(N2CCC[C@@H](NCC3CC3)C2)cc1=O (single isomer, unassigned) [Compound 237]	5.30 to 6.30	5.30 to 6.30
≥ 7.30	CC(n1cc(-c2cncc(N3CC[C@@H](C)C3)n2)nn1)n1ccc(N2CCC[C@@H](NCC3CC3)C2)cc1=O (single isomer, unassigned) [Compound 238]	≥ 6.30	≥ 6.30
≥ 7.30	CC(n1cc(-c2cncc(N3CC[C@H](C)C3)n2)nn1)n1ccc(N2CCC[C@@H](NCC3CC3)C2)cc1=O (single isomer, unassigned) [Compound 240]	≥ 6.30	≥ 6.30
≥ 7.30	CC(c1cnc(-c2cncc(N3CCCC3)n2)o1)n1ccc(N2CCC[C@@H](NCC3CC3)C2)cc1=O (single isomer, unassigned) [Compound 242]	≥ 6.30	≥ 6.30
